In paper PMC4784888, “Activity Based High-Throughput Screening for Novel O-GlcNAc Transferase Substrates Using a Dynamic Peptide Microarray” (PLoS ONE, 2016):
Each block holds one compound with its values, some of them ahead of it.

Assays:
[1] = tested on: OGT; details: known OGT inhibitor; ref [31]; read-out: reported IC50; cited from earlier work
From the text: Its interesting biology motivated us to further focus on the validation of RBL-2 O-GlcNAcylation in the following work. Kinetic signals of the GlcNAcylation were collected to fully understand the O-GlcNAcylation of RBL-2_420–422.

[2] = tested on: purified m-OGT; assay: Inhibition of RBL-2_410–422 O-GlcNAcylation by known OGT inhibitor on microarray; assay type: biochemical, human; details: 200 μM ST045849, purified m-OGT (0.2 μg/μL), 1 mM UDP-GlcNAc
Method: One step OGT purification was performed using His60 Ni Gravity Flow Columns (Clontech) according to the manufacturer’s instructions. Briefly, the nickel column was equilibrated with a buffer containing 50 mM sodium phosphate, 300 sodium chloride, 20 mM imidazole, and pH 7.4, followed by incubation with cell lysate containing His tag OGT for 1h at 4°C. After washing several times using buffer containing 50 mM sodium phosphate, 300 sodium chloride, 40 mM imidazole, and pH 7.4, the recombinant OGT was eluted using elution buffer containing 50 mM sodium phosphate, 300 mM sodium chloride, 300 mM imidazole, and pH 7.4. […]
(§1) Peptide O-GlcNAcylation was assessed using PamChip 4 microarray chips with a PamStation 12 instrument (Pamgene international, The Netherlands). […] O-GlcNAcylation of each peptide was detected by a fluorescent signal which was produced by an FITC conjugated antibody bound to the O-GlcNAc moiety on the peptide.
Image analysis was performed using BioNavigator 6 software (Pamgene international, The Netherlands). Briefly, each image was quantified by automated array grid finding and subsequent quantification of signal and local background for each individual spot. In this work, the signal median-minus-background value was used as the quantitative parameter for the O-GlcNAcylation of the peptide. […]

[3] = tested on: nc-OGT; assay: O-GlcNAcylation on kinase substrate peptide microarray, nc-OGT; assay type: biochemical, human; details: bacterial lysate containing nc-OGT (7 μg/μL), 1 mM UDP-GlcNAc, 50 mM Tris-HCl pH 7.5, 30°C, FITC antibody fluorescence, corrected for signal without UDP-GlcNAc
Method: (§2) Plasmids encoding s-OGT, m-OGT, and nc-OGT are generous gifts from John A. Hanover (National Institute of Health, USA). OGT overexpression was carried out as previously described. All the plasmids were transformed into E.coli BL21 (DE3) competent cells to produce a cell lysate containing OGT for use or for further purification. Briefly, inoculated a single colony into 50 ml of LB broth media containing 50 μg/ml ampicillin and cells were grown overnight at 37°C with vigorous shaking. 50 mL of the start culture was added into 1L LB broth media containing 50 μg/mL ampicillin and it was incubated with shaking at 200 rpm at 37°C until A600 reached 0.4–0.6. After the culture was cooled to room temperature, 0.5 mM IPTG was added into the culture to induce protein expression. After 16 hours, the cells were collected by centrifugation for 10 min at 4000 RPM at 4°C. The pellets were lysed in lysis buffer containing 20 mM Tris-HCl, pH 7.5, 1 mg/mL lysome, 0.1% triton x-100 and complete mini EDTA-free protease inhibitor cocktail on ice for 10 min and the lysate was sonicated until the DNA was completely sheared. After centrifugation for 10 min at 12000 rpm at 4°C, the supernatant was carefully transferred into a clean tube and was ready for the array assay or for further purification. Protein expression was determined by coomassie blue staining and western blotting using an anti-OGT antibody.
(§3) Peptide O-GlcNAcylation was assessed using PamChip 4 microarray chips with a PamStation 12 instrument (Pamgene international, The Netherlands). The OGT enzyme reaction was prepared essentially as described[26] with minor modifications. Briefly, before addition of the enzyme reaction, the microarray was blocked with blocking buffer (1% BSA in TBS). After 30 cycles (2 cycles/min) blocking, the blocking buffer was aspirated and the microarray was incubated with 40 μL of the enzyme reaction containing OGT (lysate or purified), OGT reaction buffer (50 mM Tris—HCl, pH 7.5;1 mM DTT;12.5 mM MgCl2), a 1:1 pre-incubated mixture of anti-O-GlcNAc and FITC conjugated secondary antibody, and the sugar donor UDP-GlcNAc or water as a control for 480 cycles (2 cycles/min) at 30°C. The microarray was run in parallel by pumping the reaction up and down through the porous membrane at every cycle and a tiff image was obtained at every 20 cycles by a CCD camera inside the PamStation. O-GlcNAcylation of each peptide was detected by a fluorescent signal which was produced by an FITC conjugated antibody bound to the O-GlcNAc moiety on the peptide.
(§4) Image analysis was performed using BioNavigator 6 software (Pamgene international, The Netherlands). Briefly, each image was quantified by automated array grid finding and subsequent quantification of signal and local background for each individual spot. In this work, the signal median-minus-background value was used as the quantitative parameter for the O-GlcNAcylation of the peptide.
(§5) Dynamic peptide microarray (PamChip) technology has been successfully and widely used for kinase activities profiling in the last decade. In the present work, we describe, for the first time, the utility of this peptide microarray format for the identification of human OGT activity. Due to the fact that O-GlcNAcylation and phosphorylation may occur at the same or proximal amino acids on the same protein [9], a peptide microarray of 144 peptides derived from different kinase substrates (S1 Appendix) was selected for an initial test. […] O-GlcNAcylation of peptides in each individual spot was detected by a fluorescent signal produced by the FITC labelled antibody recognizing the O-GlcNAcylated amino acids of converted peptides. Kinetic activity was measured through scanning the signal at regular intervals.
(§6) Fig 2 Identification of human OGT substrates from a kinase substrate and nuclear hormone receptor interaction peptide microarray. […]

[4] = tested on: OGT (s-OGT, m-OGT, nc-OGT); assay: O-GlcNAcylation on kinase substrate peptide microarray, three isoforms taken together; assay type: biochemical, human; details: for O-GlcNAcylation by all three isoforms OGT: kinase substrate microarray, bacterial lysates s-, m-, nc-OGT, 1 mM UDP-GlcNAc
Method: as §2, with “The pellets were lysed in lysis buffer containing 20 mM Tris-HCl, pH 7.5, 1 mg/mL lysome, 0.1% triton x-100 and complete mini EDTA-free protease inhibitor cocktail on ice for 10 min and the lysate was sonicated until the DNA was completely sheared.” left out
as §1, §4
Dynamic peptide microarray (PamChip) technology has been successfully and widely used for kinase activities profiling in the last decade. […] Kinetic activity was measured through scanning the signal at regular intervals. […]

[5] = tested on: m-OGT; assay: O-GlcNAcylation on kinase substrate peptide microarray, m-OGT; assay type: biochemical, human; details: bacterial lysate containing m-OGT (7 μg/μL), 1 mM UDP-GlcNAc, 50 mM Tris-HCl pH 7.5, 30°C, FITC antibody fluorescence, corrected for signal without UDP-GlcNAc
Method: as §2, §3, §4, §5, §6

[6] = tested on: s-OGT; assay: O-GlcNAcylation on kinase substrate peptide microarray, s-OGT; assay type: biochemical, human; details: bacterial lysate containing s-OGT (7 μg/μL), 1 mM UDP-GlcNAc, 50 mM Tris-HCl pH 7.5, 30°C, FITC antibody fluorescence, corrected for signal without UDP-GlcNAc
Method: as §2, §3, §4, §5, §6

[7] = biological target: T1, m-OGT (mitochondrial isoform of O-GlcNAc transferase) (human) (UniProt O15294)
T1 sequence: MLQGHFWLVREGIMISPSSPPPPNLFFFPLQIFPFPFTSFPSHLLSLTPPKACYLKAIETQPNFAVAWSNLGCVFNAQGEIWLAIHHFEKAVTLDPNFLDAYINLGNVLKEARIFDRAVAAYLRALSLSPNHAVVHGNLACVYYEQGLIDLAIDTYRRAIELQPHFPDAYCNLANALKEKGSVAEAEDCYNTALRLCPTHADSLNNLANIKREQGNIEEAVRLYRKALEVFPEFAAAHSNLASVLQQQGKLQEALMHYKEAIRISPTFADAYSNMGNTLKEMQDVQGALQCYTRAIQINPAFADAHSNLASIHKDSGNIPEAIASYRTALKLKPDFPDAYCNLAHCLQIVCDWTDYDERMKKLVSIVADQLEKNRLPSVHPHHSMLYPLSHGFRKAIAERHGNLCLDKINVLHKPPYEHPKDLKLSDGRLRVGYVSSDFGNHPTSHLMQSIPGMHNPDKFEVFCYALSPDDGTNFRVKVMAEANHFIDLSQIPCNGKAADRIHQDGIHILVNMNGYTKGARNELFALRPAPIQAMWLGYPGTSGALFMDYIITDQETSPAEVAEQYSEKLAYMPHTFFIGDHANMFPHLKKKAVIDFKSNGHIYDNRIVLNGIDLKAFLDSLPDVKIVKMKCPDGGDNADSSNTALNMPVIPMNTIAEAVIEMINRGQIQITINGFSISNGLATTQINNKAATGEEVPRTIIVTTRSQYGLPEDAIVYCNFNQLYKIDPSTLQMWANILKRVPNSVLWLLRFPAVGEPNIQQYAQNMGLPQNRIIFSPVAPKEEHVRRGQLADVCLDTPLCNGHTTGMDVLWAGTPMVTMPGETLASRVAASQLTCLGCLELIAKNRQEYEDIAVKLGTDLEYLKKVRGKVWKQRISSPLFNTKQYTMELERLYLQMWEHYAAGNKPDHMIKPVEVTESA

[8] = tested on: m-OGT; assay: Validation of RBL-2 peptide O-GlcNAcylation on microarray, dependency on UDP-GlcNAc and m-OGT lysate; assay type: biochemical, human
Method: as §2, with “After 16 hours, the cells were collected by centrifugation for 10 min at 4000 RPM at 4°C. The pellets were lysed in lysis buffer containing 20 mM Tris-HCl, pH 7.5, 1 mg/mL lysome, 0.1% triton x-100 and complete mini EDTA-free protease inhibitor cocktail on ice for 10 min and the lysate was sonicated until the DNA was completely sheared.” left out
as §1, with “peptide. […]” for “peptide.”

[9] = tested on: purified m-OGT; assay: Ala scan of RBL-2_410–422 on peptide microarray; assay type: biochemical, human; details: microarray; 1 mM UDP-GlcNAc, 0.2 μg/μL purified m-OGT
Method: One step OGT purification was performed using His60 Ni Gravity Flow Columns (Clontech) according to the manufacturer’s instructions. Briefly, the nickel column was equilibrated with a buffer containing 50 mM sodium phosphate, 300 sodium chloride, 20 mM imidazole, and pH 7.4, followed by incubation with cell lysate containing His tag OGT for 1h at 4°C. After washing several times using buffer containing 50 mM sodium phosphate, 300 sodium chloride, 40 mM imidazole, and pH 7.4, the recombinant OGT was eluted using elution buffer containing 50 mM sodium phosphate, 300 mM sodium chloride, 300 mM imidazole, and pH 7.4. The eluted fraction was concentrated through a 100,000 Da molecular weight cut off Amicon unit by centrifugation 10 min at 5000 RPM at 4°C.
as §3, §4
Synthesis of all the peptides was achieved by following a standard Fmoc SPPS strategy on a Symphony Multiple Peptide Synthesizer and starting from rink amide resin. The following Fmoc amino acids were used: Fmoc-Cys(Trt)-OH, Fmoc-Gly-OH, Fmoc-Lys(Boc)-OH, Fmoc-Glu(Otbu)-OH, Fmoc-Asn(Trt)-OH, Fmoc-Ser(tBu)-OH, Fmoc-Thr(tBu)-OH, Fmoc-Ala-OH, Fmoc-Pro-OH, Fmoc-Val-OH. Deprotection was performed using 20% piperidine in DMF, and coupling was performed using 1:0.9:2 amino acid/ HBTU/DIPEA in DMF. After completion of the synthesis, the protected peptidyl resins were incubated with a 10 mL mixture of TFA (trifluoroacetic acid): H2O: triisopropylsilane (TIPS): 1, 2-ethanedithiol (EDT) (9:0.5:0.25:0.25, v/v/v/v) and allowed to stir for 2 h at room temperature under a nitrogen atmosphere. The cleaving mixture was filtered and the resin was washed with TFA (2 mL) and DCM (4 mL). The residue was precipitated by treatment of precooled diethyl ether and centrifugation. Two times washing and centrifugation yielded the crude products in a pellet. The precipitated peptides were dissolved in water, frozen, and lyophilized. All products were stored at -20°C. Crude peptide analysis was carried out by LC-MS.
To further confirm this and investigate the role of this and surrounding amino acid residues in our activity based assay, we resynthesized the RBL-2 peptide present on the microarray and performed an Ala scan, thus replacing of all the possible O-GlcNAc sites (Ser and Thr) in RBL-2_420–422 (Fig 4A). To immobilize the peptides on the chip, all the peptides were prepared with an extra CG at the NH2 terminal to allow immobilization on the maleimide-based chip surface. […]

O-GlcNAcylation of the peptide in solution, UDP-Glo assay (UDP formation) [7]: 20%
Compound: RBL-2_410–422 T417A peptide (from UniProt Q08999 410-422)

decrease of the O-GlcNAcylation of the immobilised peptide by purified m-OGT (0.2 μg/μL, 1 mM UDP-GlcNAc), peptide microarray, against the control peptide (wild type with C415A) [7]: 40%
Compound: RBL-2_410–422 T421A peptide (from UniProt Q08999 410-422)

Rank as hit in screening assay ([4]; peptide microarray screening): best hit in our screening assay
Compound: KENSPCVTPVSTA [RBL-2_410_422, kinase substrate microarray peptide …]
OGT isoforms activity, nc [3]: P (Signal greater than 5% of the highest signal was defined as positive (P)) | O-GlcNAcylation versus amount of m-OGT lysate ([8]; bacterial lysate containing m-OGT 0, 1.7, 3.5, 7 μg/μL, 1 mM UDP-GlcNAc): increased with increasing amounts of bacterial lysate containing recombinant m-OGT | O-GlcNAcylation rate versus UDP-GlcNAc concentration ([8]; bacterial lysate containing m-OGT (7 μg/μL), UDP-GlcNAc 0–10 mM): increased upon the addition of increasing concentrations of the donor UDP-GlcNAc | OGT isoforms activity, m [5]: P (Signal greater than 5% of the highest signal was defined as positive (P)) | OGT activity of wild type compared with C415A, microarray [9]: dramatic decrease of activity comparing with C415A peptide | OGT isoforms activity, s [6]: P (Signal greater than 5% of the highest signal was defined as positive (P))

Second part, the compound before the results:

Compound: O=C(O)C1CC(=O)N(CCC23CC4CC(CC(C4)C2)C3)C(=Nc2ccc(Cl)cc2)S1 (stereo not shown) [ST045849, 3-(2-adamantanylethyl)-2-[(4-chlorophenyl)azamethylene]-4-oxo-1,3-thiazaperhyd roine-6-carboxylic acid]
IC50 [1]: ~50 µM | inhibition of RBL-2 peptide O-GlcNAcylation [2]: 80%

Compound: LSAFRRTSLAGGG [MYPC3_268_280, kinase substrate microarray peptide …]
OGT isoforms activity, nc [3]: P (Signal greater than 5% of the highest signal was defined as positive (P)) | O-GlcNAcylation by all three isoforms OGT [4]: significantly O-GlcNAcylated by all three isoforms OGT | OGT isoforms activity, m [5]: P (Signal greater than 5% of the highest signal was defined as positive (P)) | OGT isoforms activity, s [6]: P (Signal greater than 5% of the highest signal was defined as positive (P))

Compound: MLRGRSLSVTSLG [GYS2_1_13, kinase substrate microarray peptide …]
OGT isoforms activity, nc [3]: P (Signal greater than 5% of the highest signal was defined as positive (P)) | O-GlcNAcylation by all three isoforms OGT [4]: significantly O-GlcNAcylated by all three isoforms OGT | OGT isoforms activity, m [5]: P (Signal greater than 5% of the highest signal was defined as positive (P)) | OGT isoforms activity, s [6]: P (Signal greater than 5% of the highest signal was defined as positive (P))
